Source: patent publication US20090280098A1 (priority 2006, published 2009)
Where “and” joins values, the source holds several entries; their conditions need not be identical. Identical values can stand only once.

How the values were obtained:
[1] = system: enzymatic activity for fatty acid synthesis; details: cellobiose-added feedstuff; cited from earlier work
[2] = system: enzymatic activity for fatty acid degradation; details: cellobiose-added feedstuff; cited from earlier work
[3] = cellobiose-added high sucrose food for 4 weeks; versus control rats; cited from earlier work
cellooligosaccharide = format: cell-based

Molecule: O=C[C@H](O)[C@@H](O)[C@H](O[C@@H]1O[C@H](CO)[C@@H](O)[C@H](O)[C@H]1O)[C@H](O)CO [cellobiose]
- enzymatic activity for fatty acid synthesis [1]: inhibited
- enzymatic activity for fatty acid degradation [2]: increased
- body fat ratio [3]: reduced
- levels of total cholesterol and neutral fat [3]: reduced

Molecule: Bifidobacterium
- Amount of produced Lactic acid (cellooligosaccharide): 1.01 mM and 1.08 mM
